Read-outs that look alike come from different tables or passages of the source.
What was measured:
[1] = system: RNA Polymerase II Serine 5 phosphorylation (Rpb1 CTD, downstream substrate of CDK7) in A549 cells; test: Imaging-based cellular RNA PolII Ser5 phosphorylation assay in A549 cells; assay type: cell-based, human; details: for IC50: Homo sapiens; for CDK7_A549 Wild-type CDK7 (pIC50): A549 cells
Method in brief: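 A549 cells, seeded 1000/well in DMEM with 1% FBS and cultured 20 h, were treated with compound for 3 h at 37 °C. Ser5-phospho-Rpb1 CTD detected by immunofluorescence imaging after fixation and methanol permeabilization; IC50 from curve fit normalized to DMSO and 10 μM reference-compound controls.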

[2] = biological target: CDK7/cyclinH/MAT1 trimeric complex (Homo sapiens, UniProt P50613); test: In vitro CDK7 assay, potency of irreversible covalent inhibitors (kinact/KI), coupled PK/LDH ADP readout at 340 nm; details: for CDK7 (kinact/KI, M^−1*s^−1): potency of irreversible covalent inhibitors
Chain of CDK7/cyclinH/MAT1 trimeric complex (P50613 whole entry): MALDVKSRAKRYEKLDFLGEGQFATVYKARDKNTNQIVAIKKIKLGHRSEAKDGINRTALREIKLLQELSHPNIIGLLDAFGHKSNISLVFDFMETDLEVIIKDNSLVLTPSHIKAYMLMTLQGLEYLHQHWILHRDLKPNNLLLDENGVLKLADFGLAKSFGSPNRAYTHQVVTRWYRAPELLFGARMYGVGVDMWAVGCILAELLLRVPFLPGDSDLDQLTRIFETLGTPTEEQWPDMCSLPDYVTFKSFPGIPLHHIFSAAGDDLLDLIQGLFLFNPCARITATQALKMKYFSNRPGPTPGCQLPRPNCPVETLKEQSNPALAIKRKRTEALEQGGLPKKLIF
Chain of CDK7/cyclinH/MAT1 trimeric complex (P51946 whole entry partner): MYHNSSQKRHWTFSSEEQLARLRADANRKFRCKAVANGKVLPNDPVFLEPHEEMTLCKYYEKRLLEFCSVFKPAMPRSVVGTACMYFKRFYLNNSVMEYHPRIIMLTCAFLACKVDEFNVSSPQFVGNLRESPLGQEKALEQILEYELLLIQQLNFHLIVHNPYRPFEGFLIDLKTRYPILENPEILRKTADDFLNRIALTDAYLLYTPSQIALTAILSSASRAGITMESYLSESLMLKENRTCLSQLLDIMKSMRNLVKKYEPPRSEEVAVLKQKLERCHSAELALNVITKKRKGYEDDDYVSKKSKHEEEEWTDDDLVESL
Chain of CDK7/cyclinH/MAT1 trimeric complex (P51948 whole entry partner): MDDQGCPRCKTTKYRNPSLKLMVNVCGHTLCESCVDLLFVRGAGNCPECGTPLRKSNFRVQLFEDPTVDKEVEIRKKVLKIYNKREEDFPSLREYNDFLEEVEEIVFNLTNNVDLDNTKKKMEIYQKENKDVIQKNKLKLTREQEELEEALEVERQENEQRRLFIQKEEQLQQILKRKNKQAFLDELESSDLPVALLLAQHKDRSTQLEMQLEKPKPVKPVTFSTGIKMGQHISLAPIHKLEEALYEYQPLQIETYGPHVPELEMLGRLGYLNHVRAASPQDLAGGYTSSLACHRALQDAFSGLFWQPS

[3] = system: RNA Polymerase II Serine 5 phosphorylation in A549 cells overexpressing CDK7-mutant (C312S); test: Imaging-based cellular RNA PolII Ser5 phosphorylation assay in A549 cells overexpressing CDK7-mutant (C312S); assay type: cell-based, human; details: for IC50: Homo sapiens; for CDK7_A549 mutant hCDK7(pIC50): A549 cells overexpressing CDK7-mutant (C312S)
Method in brief: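 A549 cells overexpressing CDK7 C312S (with endogenous wild-type CDK7) were treated with compound for 3 h at 37 °C in 1% FBS medium. Phospho-Rpb1 CTD Ser5 was immunostained after fixation and imaged. IC50 came from curve fit of % control, normalised to DMSO and 10 μM reference-compound controls.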

[4] = A549, A549 cells, wild-type CDK7, RNA PolII Ser5 phosphorylation, averaged over all measurements, read-out: CDK7_A549 Wild-type CDK7 (pIC50) (converted)
[5] = CDK7 (20 nM enz.) (KI, μM), 20 nM enzyme
[6] = read-out: CDK7 (20 nM enz.) (kinact, s^−1), 20 nM enzyme
[7] = read-out: CDK7 (20 nM enz.) (kinact/KI, M^−1*s^−1), 20 nM enzyme
[8] = A549, A549 cells overexpressing CDK7-mutant (C312S), RNA PolII Ser5 phosphorylation, averaged over all measurements, read-out: CDK7_A549 mutant hCDK7(pIC50) (converted)
[9] = wild-type CDK7, RNA PolII Ser5 phosphorylation, averaged over all measurements
[10] = RNA PolII Ser5 phosphorylation, averaged over all measurements
[11] = CDK7 (KI(μM)), […], 1 mM ATP, room temperature, averaged values over all measurements
[12] = read-out: CDK7 (kinact, s^−1), kinact = maximal rate of inactivation, 1 mM ATP, room temperature, averaged values over all measurements
[13] = read-out: CDK7 (kinact/KI, M^−1*s^−1), potency of irreversible covalent inhibitors, 1 mM ATP, room temperature, averaged values over all measurements
[14] = 1 mM ATP, room temperature, averaged values over all measurements
[15] = read-out: CDK7 (20 nM enz.) (kobs/[I], M^−1*s^−1), 20 nM enzyme

Structure (SMILES)	IC50 [1, 4] [nM]	IC50 [3, 8] [nM]	Ki [2, 11] [µM]	kinact [2, 12] [s⁻¹]	kinact/KI [2, 13] [M⁻¹ s⁻¹]	also measured
CC#CC(=O)N1CC(N2CC[C@H](c3cc4c(c(C)n3)O[C@@H](C)c3c(N5CCOCC5)ccnc3N4)N(C)CC2)C1 (single isomer, unassigned) [Compound 528]	603	> 10000	–	–	–	Ki [2, 5]: 0.0976 µM; kinact [2, 6]: 1.7e-05 s⁻¹; kinact/KI [2, 7]: 174 M⁻¹ s⁻¹
CC#CC(=O)N1CC(N2CCC(c3cc4c(c(C)n3)O[C@H](C)c3c(-c5cnn(C)c5)ccnc3N4)CC2)C1 (single isomer, unassigned) [Compound 541]	155	> 10000	–	–	–	Ki [2, 5]: 0.0182 µM; kinact [2, 6]: 4.94e-05 s⁻¹; kinact/KI [2, 7]: 2710 M⁻¹ s⁻¹
CC#CC(=O)N1CC(N2CCC(c3cc4c(c(C#N)n3)O[C@@H](C)c3c(N5CCOCC5)ccnc3N4)CC2)C1 (single isomer, unassigned) [Compound 542]	–	–	–	–	–	CDK7_A549 Wild-type CDK7 (pIC50) [1, 9]: 6.62; CDK7 (20 nM enz.) (kinact, s^−1) ([2]; 20 nM enzyme): 0.0000556 s⁻¹; CDK7 (20 nM enz.) (kinact/KI, M^−1*s^−1) ([2]; 20 nM enzyme): 6751 M⁻¹ s⁻¹; Ki [2, 5]: 0.0082 µM; CDK7_A549 mutant hCDK7(pIC50) [3, 10]: <5
C=CC(=O)Nc1ccc(C(=O)Nc2ccc3c(c2)Nc2ncc(C)c(C4CCOCC4)c2CO3)cc1 [Compound 2]	794	> 10000	0.129	7.86e-05	609	–
C=CC(=O)N1CC(N2CCC(c3ccc4c(c3)Nc3nccc(C5CCOCC5)c3CO4)CC2)C1 [Compound 3]	–	> 10000	–	–	–	CDK7_A549 Wild-type CDK7 (pIC50) [1, 9]: 6.89; CDK7 (kinact/KI, M^−1*s^−1) [2, 14]: 2787.5 M⁻¹ s⁻¹
C=CC(=O)N1CC(N2CCC(c3ccc4c(c3)Nc3nccc(N5CCOCC5)c3CO4)CC2)C1 [Compound 4]	–	–	0.0617	0.000303	–	CDK7_A549 Wild-type CDK7 (pIC50) [1, 9]: 6.84; CDK7 (kinact/KI, M^−1*s^−1) [2, 14]: 3147.06 M⁻¹ s⁻¹; CDK7_A549 mutant hCDK7(pIC50) [3, 10]: <5
C#CCOc1cc(C(=O)Nc2ccc3c(c2)Nc2nccc(C4CCOCC4)c2CO3)ccc1NC(=O)C=C [Compound 8]	120	> 10000	–	–	1530	Ki [2, 5]: 0.0321 µM; kinact [2, 6]: 5.8e-05 s⁻¹; kinact/KI [2, 7]: 1810 M⁻¹ s⁻¹
C=CC(=O)N1CC(N2CCC(c3ccc4c(c3)Nc3nccc(N5CCS(=O)(=O)CC5)c3CO4)CC2)C1 [Compound 9]	447	> 10000	–	–	486	–
C=CC(=O)N1CC(N2CCC(c3ccc4c(c3)Nc3nccc(C5=CCOCC5)c3CO4)CC2)C1 [Compound 10]	204	> 10000	0.0555	0.000107	1570	–
C=CC(=O)N1CC(N2CCC(c3ccc4c(c3)Nc3nccc(N5C[C@H]6CC[C@@H](C5)O6)c3CO4)CC2)C1 [Compound 11]	87.1	> 10000	–	–	688	–
C=CC(=O)N1CC(N2CCC(c3ccc4c(c3)Nc3nccc(N5CC=C(CCO)CC5)c3CO4)CC2)C1 [Compound 12]	537	> 10000	–	–	296	–
C=CC(=O)N1CC(N2CCC(c3ccc4c(c3)Nc3ncc(Cl)c(N5CCOCC5)c3CO4)CC2)C1 [Compound 13]	135	> 10000	–	–	1040	–
C=CC(=O)Nc1ccc(CNc2ccc3c(c2)Nc2nccc(N4CCOCC4)c2CO3)cn1 [Compound 16]	45.7	3800	–	–	402	Ki [2, 5]: 0.0286 µM; kinact [2, 6]: 3.3e-05 s⁻¹; kinact/KI [2, 7]: 1160 M⁻¹ s⁻¹
C#CCN(C(=O)C=C)c1ccc(C(=O)Nc2ccc3c(c2)Nc2nccc(C4CCOCC4)c2CO3)cc1 [Compound 17]	126	> 10000	–	–	–	kinact/KI [2, 15]: 1470 M⁻¹ s⁻¹
C#Cc1cc(C(=O)Nc2ccc3c(c2)Nc2nccc(C4CCOCC4)c2CO3)ccc1NC(=O)C=C [Compound 18]	100	4270	–	–	–	kinact/KI [2, 15]: 1070 M⁻¹ s⁻¹
C=CC(=C)N1CC(N2CCC(c3cc4c(cc3C)OCc3c(N5CCOCC5)ccnc3N4)CC2)C1 [Compound 19]	–	–	–	–	–	IC50 ([1]; A549, read-out: CDK7_A549 Wild-type CDK7 (pIC50) (converted)): 166 nM; kinact/KI ([2]; read-out: CDK7 (kinact/KI, M^−1*s^−1)): 304 M⁻¹ s⁻¹; IC50 ([3]; A549, read-out: CDK7_A549 mutant hCDK7(pIC50) (converted)): > 10000 nM
C=CC(=O)N1CC(N2CCC(c3ccc4c(c3)Nc3nccc(N5CCOCC5)c3C(C)O4)CC2)C1 (stereo not shown) [Compound 22]	56.2	> 10000	–	–	52.4	Ki [2, 5]: 0.0524 µM; kinact [2, 6]: 7.22e-05 s⁻¹; kinact/KI [2, 7]: 1870 M⁻¹ s⁻¹
C=CC(=O)N1CC(N2CCC(c3cc4c(cc3Cl)OCc3c(N5CCOCC5)ccnc3N4)CC2)C1 [Compound 23]	120	> 10000	–	–	455	–
C=CC(=O)Nc1cc(-c2ccc3c(c2)Nc2nccc(N4CCOCC4)c2CO3)ccn1 [Compound 24]	52.5	6920	–	–	21.5	kinact/KI [2, 7]: 1250 M⁻¹ s⁻¹
C=CC(=O)N1CCC(c2ccc(-c3ccc4c(c3)Nc3nccc(N5CCOCC5)c3CO4)cn2)C1 (stereo not shown) [Compound 25]	891	> 10000	0.0648	2.33e-05	254	–
C=CC(=O)Nc1ccc(-c2ccc3c(c2)Nc2nccc(N4CCOCC4)c2CO3)cn1 [Compound 26]	–	–	0.063	0.000102	1620	CDK7_A549 Wild-type CDK7 (pIC50) [1, 9]: 7.65; CDK7 (20 nM enz.) (kobs/[I], M^−1*s^−1) ([2]; 20 nM enzyme): 1343.33 M⁻¹ s⁻¹; CDK7_A549 mutant hCDK7(pIC50) [3, 10]: ~5.1
C=CC(=O)N1CC(N2CCC(c3cc4c(cc3F)OCc3c(N5CCOCC5)ccnc3N4)CC2)C1 [Compound 28]	257	> 10000	–	–	477	–
C=CC(=O)N1CC(N2CCC(c3cc(Cl)c4c(c3)Nc3nccc(N5CCOCC5)c3CO4)CC2)C1 [Compound 29]	38.9	~7760	–	–	–	kinact/KI [2, 7]: 1030 M⁻¹ s⁻¹
C=CC(=O)N1CCC(C#Cc2ccc3c(c2)Nc2nccc(C4CCOCC4)c2CO3)CC1 [Compound 30]	~7590	> 10000	0.316	6.56e-05	208	–
C=CC(=O)N1CC(N2CCC(c3ccc4c(c3)Nc3nccc(-c5cnc6[nH]ccc6c5)c3CO4)CC2)C1 [Compound 31]	437	> 10000	0.175	0.000112	638	–
C=CC(=O)N1CC(C#Cc2ccc3c(c2)Nc2nccc(C4CCOCC4)c2CO3)C1 [Compound 33]	603	> 10000	0.15	0.000158	1050	–
C=CC(=O)N1CCC(N2CC(c3ccc4c(c3)Nc3nccc(C5CCOCC5)c3CO4)C2)CC1 [Compound 36]	–	–	–	–	–	CDK7_A549 Wild-type CDK7 (pIC50) [1, 9]: 6.89; CDK7 (20 nM enz.) (kinact/KI, M^−1*s^−1) ([2]; 20 nM enzyme): 535 M⁻¹ s⁻¹; Ki [2, 5]: 0.092 µM; kinact [2, 6]: 4.92e-05 s⁻¹; CDK7_A549 mutant hCDK7(pIC50) [3, 10]: 5.04
C=CC(=O)N1CC(N2CCC(c3ccc4c(c3)Nc3ncc(C)c(N5CCOCC5)c3CO4)CC2)C1 [Compound 37]	851	> 10000	0.129	0.00011	849	–

Source: patent publication US20240254138A1, “TRICYCLIC PYRIMIDINES AS CYCLIN-DEPENDENT KINASE 7 (CDK7) INHIBITORS” (JANSSEN PHARMACEUTICA NV, priority 2021, published 2024)
